Read-outs that look alike come from different tables or passages of the source.
Columns and labels:
Type in all cases: in vivo
[1] = tested on: Plutella xylostella (Diamond Back Moth, Larvicide L-2/3); assay: Biological comparison: insecticidal activity against Plutella xylostella, larvicide L-2/3, sprayed Chinese cabbage plants; settings: 120 h
Protocol: Biological Comparison Data:
Compound A is disclosed in WO2014/122083 as example (Ic-2) (p. 82, Table 3). The activities of compounds A is compared with the activities of compound 41 and 42, according to the present invention. The tests are carried out at different concentrations (ppm).
a) Insecticidal Activity Against Plutella xylostella (Diamond Back Moth, Larvicide L-2/3, Feeding/Contact)
Chinese cabbage plants are sprayed with diluted test solutions in an application chamber. 1 day after treatment, excised leaves are placed in petri dishes and infested with 10 L2 (2 replicates). Samples are checked 5 days after infestation for mortality, feeding behavior, and growth regulation.

[2] = tested on: Euschistus heros (Neotropical Brown Stink Bug); assay: Euschistus heros (neotropical brown stink bug), feeding/contact activity, mortality; settings: 120 h, application rate 200 ppm, N2 nymphs, 5 days after infestation, read-out: mortality
Protocol: Euschistus heros (Neotropical Brown Stink Bug): Feeding/contact activity
Soybean leaves on agar in 24-well microtiter plates were sprayed with aqueous test solutions prepared from 10′000 ppm DMSO stock solutions. After drying the leaves were infested with N2 nymphs. The samples were assessed for mortality 5 days after infestation.

[3] = tested on: Diabrotica balteata (Corn Root Worm); assay: Diabrotica balteata (corn root worm), sprayed maize sprouts on agar, mortality; settings: 96 h, application rate 200 ppm, L2 larvae, 4 days after infestation, read-out: mortality
Protocol: Diabrotica balteata (Corn Root Worm):
Maize sprouts placed onto an agar layer in 24-well microtiter plates were treated with aqueous test solutions prepared from 10′000 ppm DMSO stock solutions by spraying. After drying, the plates were infested with L2 larvae (6 to 10 per well). The samples were assessed for mortality 4 days after infestation.

[4] = tested on: Thrips tabaci (Onion Thrips); assay: Thrips tabaci (onion thrips), feeding/contact activity, mortality; settings: 144 h, application rate 200 ppm, thrips population of mixed ages, 6 days after infestation, read-out: mortality
Protocol: Thrips tabaci (Onion Thrips): Feeding/Contact Activity
(§1) Sunflower leaf discs were placed on agar in 24-well microtiter plates and sprayed with aqueous test solutions prepared from 10′000 ppm DMSO stock solutions. After drying the leaf discs were infested with a thrips population of mixed ages. The samples were assessed for mortality 6 days after infestation.

[5] = tested on: Tetranychus urticae (Two-Spotted Spider Mite); assay: Tetranychus urticae (two-spotted spider mite), feeding/contact activity, mortality; settings: 192 h, application rate 200 ppm, mixed population (mobile stages), 8 days after infestation
Protocol: Tetranychus urticae (Two-Spotted Spider Mite): Feeding/Contact Activity
as §1, with “Bean” for “Sunflower”, “discs” for “discs were placed”, “were” for “and”, “mite” for “thrips”, “on mixed population (mobile stages) 8” for “6”

[6] = tested on: Plutella xylostella (Diamond Back Moth); assay: Plutella xylostella (diamond back moth), feeding/contact activity on artificial diet, mortality; settings: 120 h, application rate 200 ppm, L2 larvae on artificial diet, 5 days after infestation, read-out: mortality
Protocol: Plutella xylostella (Diamond Back Moth): Feeding/Contact Activity
24-well microtiter plates with artificial diet were treated with aqueous test solutions prepared from 10′000 ppm DMSO stock solutions by pipetting. After drying, the plates were infested with L2 larvae (10 to 15 per well). The samples were assessed for mortality 5 days after infestation.

[7] = tested on: Myzus persicae (Green Peach Aphid); assay: Myzus persicae (green peach aphid), feeding/contact activity, mortality; settings: 144 h, application rate 200 ppm, aphid population of mixed ages, 6 days after infestation
Protocol: Myzus persicae (Green Peach Aphid): Feeding/Contact Activity
Sunflower leaf discs were placed onto agar in a 24-well microtiter plate and sprayed with aqueous test solutions prepared from 10′000 ppm DMSO stock solutions. After drying, the leaf discs were infested with an aphid population of mixed ages. The samples were assessed for mortality 6 days after infestation.

[8] = tested on: Spodoptera littoralis (Egyptian Cotton Leaf Worm); assay: Spodoptera littoralis (Egyptian cotton leaf worm), feeding/contact activity, mortality; settings: 72 h, application rate 200 ppm, L1 larvae, 3 days after infestation, read-out: mortality
Protocol: Spodoptera littoralis (Egyptian Cotton Leaf Worm): Feeding/Contact Activity
Cotton leaf discs were placed onto agar in 24-well microtiter plates and sprayed with aqueous test solutions prepared from 10′000 ppm DMSO stock solutions. After drying the leaf discs were infested with five L1 larvae. The samples were assessed for mortality 3 days after infestation.

[9] = concentration 0.0125 ppm, L2 larvae, 5 days after infestation, read-out: Mortality (%)
[10] = concentration 0.05 ppm, L2 larvae, 5 days after infestation, read-out: Mortality (%)
[11] = concentration 0.2 ppm, L2 larvae, 5 days after infestation, read-out: Mortality (%)
[12] = concentration 0.8 ppm, L2 larvae, 5 days after infestation, read-out: Mortality (%)

SMILES | mortality at 0.0125 ppm [1, 9] [%] | mortality at 0.05 ppm [1, 10] [%] | mortality at 0.2 ppm [1, 11] [%] | mortality at 0.8 ppm [1, 12] [%] | mortality at 200 ppm [2] [%] | mortality at 200 ppm [3] [%] | mortality at 200 ppm [4] [%] | mortality at 200 ppm [5] [%] | mortality at 200 ppm [6] [%] | mortality at 200 ppm [7] [%] | mortality at 200 ppm [8] [%] | mortality at 0.0125 ppm [1] [%] | mortality at 0.05 ppm [1] [%] | mortality at 0.2 ppm [1] [%] | mortality at 0.8 ppm [1] [%]
CCN(C(=O)c1cc(-c2cnn(-c3c(OC(F)F)c(C(F)(F)C(F)(F)F)nn3C)c2)ccc1Cl)C1(C#N)CC1 [Compound 42] | 95 | 100 | 100 | 100 | ≥ 80 | ≥ 80 | ≥ 80 | ≥ 80 | ≥ 80 | ≥ 80 | ≥ 80 |  |  |  | 
Cn1nc(C(F)(F)C(F)(F)F)c(C(F)(F)F)c1-n1cc(-c2ccc(Cl)c(C(=O)NC3(C#N)CC3)c2)cn1 [Cpd A, reference compound] |  |  |  |  |  |  |  |  |  |  |  | 35 | 85 | 100 | 100
Cn1nc(C(F)(F)C(F)(F)F)c([S+]([O-])C2CC2)c1-n1cc(-c2ccc(Cl)c(C(=O)NC3CC3)c2)cn1 (stereo not drawn) [Compound 34] |  |  |  |  | ≥ 80 | ≥ 80 | ≥ 80 | ≥ 80 | ≥ 80 | ≥ 80 | ≥ 80 |  |  |  | 
C=Cc1c(C(F)(F)C(F)(F)F)nn(C)c1-n1cc(-c2ccc(Cl)c(C(=O)NC3CC3)c2)cn1 [Compound 16, 2-Chloro-N-cyclopropyl-5-[1-[2-methyl-5-(1,1,2,2,2-pentafluoroethyl)-4-vinyl-pyrazol-3-yl]pyrazol-4-yl]benzamide] |  |  |  |  | ≥ 80 | ≥ 80 | ≥ 80 | ≥ 80 | ≥ 80 | ≥ 80 | ≥ 80 |  |  |  | 
Cn1nc(C(F)(F)C(F)(F)F)c(OC(F)F)c1-n1cc(-c2cnc(Cl)c(C(=O)NC3CC3)c2)cn1 [Compound 22] |  |  |  |  | ≥ 80 | ≥ 80 | ≥ 80 | ≥ 80 | ≥ 80 | ≥ 80 | ≥ 80 |  |  |  | 
CN(C(=O)c1cc(-c2cnn(-c3c(OC(F)F)c(C(F)(F)C(F)(F)F)nn3C)c2)ccc1Cl)C1(C#N)CC1 [Compound 41] | 90 | 100 | 100 | 100 | ≥ 80 | ≥ 80 | ≥ 80 | ≥ 80 | ≥ 80 |  | ≥ 80 |  |  |  | 
Cn1nc(C(F)(F)C(F)(F)F)c(C2CC2)c1-n1cc(-c2ccc(Cl)c(C(=O)NC3(C#N)CC3)c2)cn1 [Compound 9] |  |  |  |  | ≥ 80 | ≥ 80 | ≥ 80 | ≥ 80 | ≥ 80 | ≥ 80 | ≥ 80 |  |  |  | 
Cn1nc(C(F)(F)C(F)(F)F)c([S+]([O-])C2CC2)c1-n1cc(-c2ccc(Cl)c(C(=O)NC3(C#N)CC3)c2)cn1 (stereo not drawn) [Compound 36] |  |  |  |  | ≥ 80 | ≥ 80 | ≥ 80 | ≥ 80 | ≥ 80 | ≥ 80 | ≥ 80 |  |  |  | 
